# Earlier results, collected in patent US20240269083A1, “PROLONGED-RELEASE PHARMACEUTICAL COMPOSITION FOR ORAL ADMINISTRATION OF SULTIAME” (ADVICENNE, priority 2021, published 2024).
# Tested on: erythrocytes
# Conditions: single doses of Ospolot, fasting, healthy subjects
structure (smiles),measurement,value
"NS(=O)(=O)c1ccc(N2CCCCS2(=O)=O)cc1 [sultiame, Sultiame]",affinity for erythrocytes,very strong affinity for erythrocytes
